Columns and labels:
Assay type in all cases: in vivo
[1] = system: nematode Caenorhabditis elegans; assay: C. elegans soaking assay, counting of life stages; details: Example 13
Method: The effects of dextran sulfate on the RNAi-induced phenotypes of a non-insect species, namely, the nematode Caenorhabditis elegans, were tested in a soaking assay. Wild-type worms were chunked from a stock plate and adults were bleached to obtain a well-staged population. The assay was set up in a V-shaped 96-well plate, with each well containing 20 μl of solution comprising 50 ng/μl target rps-14 dsRNA (SEQ ID NO:6), various concentrations of dextran sulfate (0 mg/ml, 0.25 mg/ml, 0.50 mg/ml and 1 mg/ml) and 50 first-larval stage nematodes. Each treatment was performed in triplicate. The plate containing the worms was incubated at 25° C. for overnight soaking After 17 hours, the worms were transferred to 3.5 cm agar-plates seeded with OP50 E. coli and incubated at 20° C. for a further 2 days. After this growing period, the assay was assessed by counting the different life stages for all treatments.

[2] = system: Colorado potato beetle (Leptinotarsa decemlineata) larvae; assay: Colorado potato beetle (CPB) larvae bioassay on artificial diet, test solution applied topically to the diet
Method: The bioassay was typically performed in an 48-well-plate containing 500 μl of artificial diet per well. Thirty μl of test solution consisting of 5 μl Ld105 (SEQ ID NO 1) dsRNA (starting concentration 10 ng/μl) and 25 μl of dextran sulfate (of varying concentrations in Milli-Q water) was applied topically to the diet and the diet left to dry for about two hours in the laminar flow at room temperature. One 2nd stage CPB larva was placed in each well. Per treatment, 24 insects were tested. The plates were incubated in the insect rearing chamber at 25° C. and ±50% RH, with a photoperiod of 16 hours light/8 hours dark. Mortality was scored over the course of the experiment. The Kaplan-Meier estimator was used to plot the survival curves and the survival curves were compared using the logrank χ^2 test.
In a CPB bioassay (set-up described in Example 1), target Ld105 dsRNA (SEQ ID NO:1) was tested at one quantity (50 ng) in the presence of fucoidan (average Mw±20 kDa; Sigma cat. no. F5631) at different amounts ranging from 50 ng to 50 μg per larva.
In a CPB bioassay (set-up described in Example 1), target Ld105 dsRNA (SEQ ID NO:1) was tested at different amounts ranging from 1 pg to 1 μg in the presence of 50 μg dextran sulfate per larva.
In a CPB bioassay (set-up described in Example 1), target Ld105 dsRNA (SEQ ID NO:1) was tested at one quantity (50 ng) in the presence of heparin (MP Biomedicals cat. no. 194114) at different amounts ranging from 50 ng to 50 μg per larva.
In a CPB bioassay (set-up described in Example 1), target Ld105 dsRNA (SEQ ID NO:1) was tested at one quantity (50 ng per larva) in the presence of 50 μg chondroitin sulfate (Sigma cat. no. C3788) or hyaluronic acid (Sigma cat. no. 53747).
Preparation of the recombinant bacteria is described in the international publication WO 2007/080127 (see pages 55-56).
In one CPB bioassay (set-up described in Example 1), different target dsRNAs (SEQ ID NO:1, 2, 3, 4; Ld105 dsRNA=SEQ ID NO:1, Ld013=SEQ ID NO: 2, Ld009=SEQ ID NO: 3 and Ld248=SEQ ID NO: 4) were tested at one quantity (100 ng) in the presence of dextran sulfate (50 μg).

[3] = system: Colorado potato beetle (Leptinotarsa decemlineata) larvae; assay: CPB sequential feeding assay (priming with dextran sulfate, then dsRNA) on artificial diet; details: Example 11; DS/DS treatment, 50 μg dextran sulfate
Method: In one CPB bioassay, target Ld105 dsRNA (SEQ ID NO:1) was tested at one quantity (1 μg) following a short exposure to dextran sulfate only. The bioassay set-up was similar to that described in Example 1, except that the larvae were first fed diet with topically applied dextran sulfate (DS; 50 μg), or water, for two full days before transferring them to fresh diet with topically applied Ld105 dsRNA, dextran sulfate or water only, for the remainder of the assay.

[4] = system: Colorado potato beetle (Leptinotarsa decemlineata) larvae; assay: Alternative CPB bioassay using treated potato leaf discs; details: Example 10; 50 μg dextran sulfate alone on leaf discs
Method: An alternative bioassay was used using potato leaf discs rather than artificial diet as food source for CPB. Discs of approximately 0.9 cm in diameter (or 0.64 cm^2) were cut out off leaves of 4- to 6-week-old potato plants using a suitably sized cork borer. Treated leaf discs were prepared by applying 2 μl of a solution comprising 100 ng target Ld105 dsRNA (SEQ ID NO:1) and 50 μg dextran sulfate on the adaxial leaf surface. The leaf discs were allowed to dry and placed individually in 24 wells of a 48-well multiwell plate. A single second-larval stage CPB was placed into each well and the plate covered with a plastic lid. Twenty-four larvae were tested per treatment. […] After 24 hours, the larvae were transferred to fresh, untreated leaf discs and placed in the chamber for a further 24 hours. This was repeated once after which the CPB larvae were transferred on to artificial diet where they were kept until the end of the bioassay.

[5] = 50 ng/μl rps-14 dsRNA, alone or plus 1 mg/ml dextran sulfate, 17 hours soaking, then 2 days growing
[6] = Example 6, heparin or dextran sulfate alone, no dsRNA

Substance: rps-14 dsRNA: C. elegans target rps-14 double-stranded RNA, SEQ ID NO:6
- number of L3 stage larvae [1, 5]: 11%
- number of L4 stage larvae [1, 5]: 19%
- number of adults [1, 5]: 63%
- number of dead larvae [1, 5]: 7%

Substance: dextran sulfate [dextran sulfate (±1400 kDa)]
- toxicity to larvae ([2]; Example 5, dextran sulfate (±1400 kDa) alone, 50 ng to 50 μg per larva): Very little or no toxicity

Substance: heparin [reference compound]
- toxicity to larvae [2, 6]: Very little or no toxicity

Substance: fucoidan
- toxicity to larvae ([2]; Example 2, fucoidan alone, 50 ng to 50 μg per larva): Very little or no toxicity

Substance: dextran sulfate [dextran sulfate (±8 kDa)]
- toxicity to larvae [3]: Very little or no toxicity
- toxicity to nematodes ([1]; dextran sulfate alone (data not shown)): No toxicity
- toxicity to larvae ([2]; Example 1, dextran sulfate (±8 kDa) alone, 50 ng to 50 μg per larva, no dsRNA): Very little or no toxicity
- toxicity to larvae ([2]; Example 4, 50 μg dextran sulfate (±8 kDa) alone): Very little or no toxicity
- toxicity to larvae [2, 6]: Very little or no toxicity
- toxicity to larvae [4]: Very little toxicity
